Article PMC8508710, “Biochemical Characterization of 13-Lipoxygenases of Arabidopsis thaliana” (International Journal of Molecular Sciences, 2021)
Read-outs that look alike come from different tables or passages of the source.

Tests used:
LOX3 = molecular target: T1, LOX3 (Arabidopsis thaliana, UniProt Q9LNR3); test: LOX3 activity, oxygen electrode (polarography); type: biochemical; design: made in house; host or cells: E. coli Nico21(DE3), pET15b; settings: enzyme incubated with 280 µM chemical (1/10 vol of 2.8 mM), injected into 30 µM LeA, 50 mM Tris-HCl pH 7.2; vs solvent control; read-out: Polarography Relative Activity (%) LOX3
T1 sequence (Q9LNR3 71-919): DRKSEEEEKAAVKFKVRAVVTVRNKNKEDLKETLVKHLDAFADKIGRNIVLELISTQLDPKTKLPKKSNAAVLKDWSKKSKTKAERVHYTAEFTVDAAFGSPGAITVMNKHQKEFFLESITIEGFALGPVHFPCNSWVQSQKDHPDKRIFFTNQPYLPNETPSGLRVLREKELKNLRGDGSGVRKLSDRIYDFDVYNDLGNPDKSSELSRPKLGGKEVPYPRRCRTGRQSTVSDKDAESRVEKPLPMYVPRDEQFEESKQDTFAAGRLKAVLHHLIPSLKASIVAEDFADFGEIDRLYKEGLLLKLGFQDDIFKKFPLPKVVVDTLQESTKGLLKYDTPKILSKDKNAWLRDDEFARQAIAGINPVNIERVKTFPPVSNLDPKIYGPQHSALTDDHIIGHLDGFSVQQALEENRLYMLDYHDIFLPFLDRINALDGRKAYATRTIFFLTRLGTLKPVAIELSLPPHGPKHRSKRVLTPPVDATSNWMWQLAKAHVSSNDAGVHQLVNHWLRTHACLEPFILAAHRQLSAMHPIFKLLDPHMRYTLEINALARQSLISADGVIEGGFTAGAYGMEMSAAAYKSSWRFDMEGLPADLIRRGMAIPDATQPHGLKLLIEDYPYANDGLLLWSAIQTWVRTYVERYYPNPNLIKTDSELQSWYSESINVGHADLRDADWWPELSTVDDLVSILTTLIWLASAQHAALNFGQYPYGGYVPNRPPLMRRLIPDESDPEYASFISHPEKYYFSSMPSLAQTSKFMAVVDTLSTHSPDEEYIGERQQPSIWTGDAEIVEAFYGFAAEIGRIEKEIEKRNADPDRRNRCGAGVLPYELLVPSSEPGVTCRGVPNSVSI

LOX4 [1] = molecular target: T2, LOX4 (Arabidopsis thaliana, UniProt Q9FNX8); test: LOX4 activity, oxygen electrode (polarography); type: biochemical; design: made in house; host or cells: E. coli Nico21(DE3), pET15b; settings: enzyme incubated with 280 µM chemical (1/10 vol of 2.8 mM), injected into 30 µM LeA, 50 mM Tris-HCl pH 7.2; vs solvent control; read-out: Polarography Relative Activity (%) LOX4
T2 sequence (Q9FNX8 71-926): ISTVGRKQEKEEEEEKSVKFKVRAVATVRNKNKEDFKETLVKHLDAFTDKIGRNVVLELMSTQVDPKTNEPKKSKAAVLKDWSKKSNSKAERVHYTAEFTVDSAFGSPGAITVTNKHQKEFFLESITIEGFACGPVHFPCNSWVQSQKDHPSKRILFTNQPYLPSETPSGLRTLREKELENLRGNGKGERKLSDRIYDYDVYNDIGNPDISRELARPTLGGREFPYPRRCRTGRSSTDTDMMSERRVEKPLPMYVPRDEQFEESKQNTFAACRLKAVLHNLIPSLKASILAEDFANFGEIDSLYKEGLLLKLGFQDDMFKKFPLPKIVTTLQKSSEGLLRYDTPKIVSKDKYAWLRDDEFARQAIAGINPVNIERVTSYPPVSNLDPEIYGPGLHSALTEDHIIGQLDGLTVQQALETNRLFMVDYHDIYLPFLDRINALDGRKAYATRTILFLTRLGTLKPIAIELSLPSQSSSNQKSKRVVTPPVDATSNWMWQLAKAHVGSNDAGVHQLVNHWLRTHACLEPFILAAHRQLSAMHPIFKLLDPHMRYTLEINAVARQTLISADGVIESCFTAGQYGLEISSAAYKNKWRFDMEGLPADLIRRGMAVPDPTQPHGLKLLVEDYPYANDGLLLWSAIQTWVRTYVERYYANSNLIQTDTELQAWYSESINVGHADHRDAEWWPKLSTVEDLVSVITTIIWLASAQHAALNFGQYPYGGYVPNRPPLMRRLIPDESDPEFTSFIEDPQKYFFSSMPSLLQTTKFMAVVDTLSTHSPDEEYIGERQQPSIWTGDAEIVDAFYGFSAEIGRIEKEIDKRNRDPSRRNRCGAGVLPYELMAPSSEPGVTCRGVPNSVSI

AOS = tested on: AOS; design: method as in PMID 12223729; settings: cited from earlier work
LOX4 [2] = molecular target: T2, LOX4; test: LOX4 activity, oxygen electrode (polarography); type: biochemical; design: made in house; host or cells: E. coli Nico21(DE3), pET15b; settings: for Relative Activity (%) LOX4: 1 mM metal salt, LeA 30 µM in 20 mM HEPES pH 8.0, oxygen consumption vs control without metal
[3] = 12.2 µg LOX4 + 1.3 mM GSH prior to 140 µM 12-OPDA
[4] = doubled LOX4 concentration + 1.3 mM GSH + 140 µM 12-OPDA

O=C(O)/C=C/CCCCCCCCC(=O)O [TA, traumatic acid]
activity at 280 µM (LOX3): 100 ± 5% | activity at 280 µM (LOX4 [1]): 100 ± 9%

[Cl-].[Cl-].[Mg+2] [MgCl2]
Sensitivity of AOS (AOS; 1.0 mM): insensitivity | Increase of LOX4 activity in comparison to control (LOX4 [2]; 1 mM cation, LeA 30 µM, pH 8.0): 6% | Relative Activity (%) LOX4 (LOX4 [2]): 106 ± 3%

[Ca+2].[Cl-].[Cl-] [CaCl2]
Sensitivity of AOS (AOS; 1.0 mM): insensitivity | Relative Activity (%) LOX4 (LOX4 [2]): 100 ± 4%

CCC=CCC1C(=O)C=CC1CCCCCCCC(=O)O (stereo not drawn) [12-OPDA, cis-(+)-12-oxophytodienoic acid]
Sensitivity of AOS (AOS; 0.5 mM): insensitivity | Residual LOX4 activity (LOX4 [2]; 12.2 µg LOX4 + 140 µM 12-OPDA alone): 29.6% | Oxygen consumption (residual LOX4 activity) (LOX4 [2]; 12.2 µg LOX4 + 140 µM 12-OPDA alone, control 9.8 ± 0.1): 2.9 ± 0.1 nmol/mL/min | Oxygen consumption (residual LOX4 activity) (LOX4 [2]; [3]): 3.6 ± 0.1 nmol/mL/min | Residual LOX4 activity (LOX4 [2]; [3]): 36.7% | Residual LOX4 activity (LOX4 [2]; doubled LOX4 concentration + 140 µM 12-OPDA): 34% | Oxygen consumption (residual LOX4 activity) (LOX4 [2]; doubled LOX4 concentration + 140 µM 12-OPDA, control 19.7 ± 0.1): 6.7 ± 0.1 nmol/mL/min | Oxygen consumption (residual LOX4 activity) (LOX4 [2]; [4]): 9.0 ± 0.1 nmol/mL/min | Residual LOX4 activity (LOX4 [2]; [4]): 45.7% | Oxygen consumption (residual LOX4 activity) (LOX4 [2]; doubled LOX4 concentration + 2.6 mM GSH + 140 µM 12-OPDA): 8.5 ± 0.6 nmol/mL/min | activity at 280 µM (LOX3): 60 ± 5% | activity at 280 µM (LOX4 [1]): 21 ± 5%

CC/C=C\CC1C(=O)CCC1CC(=O)OC (stereo not drawn) [MJ, methyl jasmonate]
activity at 280 µM (LOX3): 85 ± 5% | activity at 280 µM (LOX4 [1]): 95 ± 3%

O=C(O)c1ccccc1O [SA, salicylic acid]
activity at 280 µM (LOX3): 101 ± 5% | activity at 280 µM (LOX4 [1]): 101 ± 4%

O=S(=O)([O-])[O-].[Cd+2] [CdSO4]
Relative Activity (%) LOX4 (LOX4 [2]): no activity
